# Measurements taken from PMC11858513, “Antibiofilm Activities of Tritrpticin Analogs Against Pathogenic Pseudomonas aeruginosa PA01 Strains” (Molecules, 2025).
# Read-outs that look alike come from different tables or passages of the source. Residues, ends and D or L forms follow the SMILES beside them.
# Assays:
# [1] = tested on: S. aureus GFP; type: cell-based, Staphylococcus aureus; settings: Table 4; Sa GFP; lowest concentration of peptide with no bacterial growth seen on the spot agar plate
# Excerpt: (§1) The methods to determine the MIC, MBIC and MBEC have been described in detail in our previous publication. The green fluorescent protein (GFP)-producing P. aeruginosa and S. aureus strains that were used in this work were also described in the earlier publication. Fluorescence detection was used as the main method to estimate the number of cells entrapped in the biofilm matrix. The methodology used for evaluation of the antibiofilm properties against an original Pseudomonas PA01 strain by crystal violet dye staining and the use of the Calgary biofilm device has been described elsewhere. The regular PA01 strain was provided by Dr. J. Harrison, Calgary. All measurements were carried out on an Eppendorf AF2200 plate reader. Every 96-well plate included controls for bacterial cell growth without peptide treatment and media alone. All measurements were carried out in triplicate, and the values in the figures represent the average and the error bars are standard deviation.
# [2] = tested on: P. aeruginosa PAO1; type: cell-based, Pseudomonas aeruginosa; settings: Table 5; regular PAO1 (no GFP), 1x BM2; absorbance 600 nm; mean of three biological replicates
# Protocol: (§2) Figure 4 The MIC (A), MBIC (B) and MBRC (C) values for the peptides were assessed against P. aeruginosa PAO1 in the presence of 1× BM2. The inhibition of planktonic cells, the inhibition of biofilm cells and the reduction in biofilm cells were determined for the peptides by recording of the planktonic cells at 600 nm and quantification of biofilms formed by Pa PAO1 using crystal violet at 595 nm, respectively. Three biological replicates were run for each test sample, and the mean was calculated for the recorded absorption values. Data points with error bars indicate the standard deviation (±SD).
# (§3) Figure 6 The MIC (A), MBIC (B) and MBEC (C) values for the tritrpticin-Lys derivatives against P. aeruginosa PAO1 were assessed by the crystal violet (CV) assay for the measurement of inhibition of biofilm formation and eradication of biofilm cells, respectively. The biofilm cells were rinsed, stained with 0.1% crystal violet for 15 min and then rinsed again. The CV was released from biofilm cells by the addition of 95% ethanol and quantified by reading on a spectrometer at 595 nm. Three replicates were run for each sample, the values were averaged and the error bars represent the standard deviation (±SD).
# as §1
# [3] = tested on: P. aeruginosa PAO1 GFP; assay: MBIC, prevention of biofilm formation, GFP fluorescence method; type: cell-based, Pseudomonas aeruginosa; settings: Table 2, BM2 medium, mean of three biological replicates
# Protocol: (§4) Figure 1 The MIC (A), MBIC (B) and MBEC (C) values for the tritrpticin analog peptides were assessed against Pa PAO1 GFP. The MIC values were determined by measuring the absorbance of bacterial cells at 600 nm. The MBIC and MBEC values were determined by recording the fluorescence at 480 nm and 530 nm from the biofilms of GFP-expressing PAO1. Three biological replicates were run for each test sample, and the mean was calculated for the recorded absorption or fluorescence values. In the graphs, the error bars represent the standard deviation (±SD).
# (§5) Figure 2 The MIC (A), MBIC (B) and MBEC (C) values for the tritrpticin-Lys derivative peptides were assessed against Pa PAO1 GFP. The MIC values were determined by measuring the absorbance of bacterial cells at 600 nm. The MBIC and MBEC values were determined by recording the fluorescence at 480 nm and 530 nm from the biofilms of GFP-expressing PAO1. Three replicates were run for each sample, the values were averaged and the error bars represent the standard deviation (±SD).
# as §1
# [4] = tested on: S. aureus GFP; assay: MIC against planktonic cells, absorbance at 600 nm; type: cell-based, Staphylococcus aureus; settings: Table 4; Sa GFP, 10% TSB and 0.1% glucose; absorbance 600 nm; mean of three biological replicates
# Protocol: as §4, with “3” for “1”, “Sa” for “Pa PAO1”, “Sa.” for “PAO1.”
# as §1
# [5] = tested on: S. aureus GFP; assay: MBEC, GFP fluorescence method; type: cell-based, Staphylococcus aureus; settings: Table 4, Sa GFP, 10% TSB and 0.1% glucose, mean of three biological replicates
# Protocol: as §4, with “3” for “1”, “Sa” for “Pa PAO1”, “Sa.” for “PAO1.”
# as §1
# [6] = tested on: S. aureus GFP; assay: MBIC, GFP fluorescence method; type: cell-based, Staphylococcus aureus; settings: Table 4, Sa GFP, 10% TSB and 0.1% glucose, mean of three biological replicates
# Protocol: as §4, with “3” for “1”, “Sa” for “Pa PAO1”, “Sa.” for “PAO1.”
# as §1
# [7] = tested on: P. aeruginosa PAO1; type: cell-based; settings: for MBRC (CV at 595 nm) LD90: minimum biofilm reduction concentration
# Protocol: (§6) We note the close agreement with the MBIC and MBEC values determined by the fluorescence and CV methods, similar to what we found in our previous work for an S. aureus MRSA strain [23]. We also re-evaluated the MBEC values that are measured using the Calgary biofilm device (CBD), where biofilms form on pegs, rather than at the bottom of the 96-well plates. […] In particular, we find that the single Pro9Ala Tritrp-P9A-substituted version has better MIC, MBIC and MBEC activities than the parent peptide as well as the Tritrp-P59A analog with both prolines substituted to Ala.
# as §2, §3, §1
# [8] = tested on: P. aeruginosa PAO1 GFP; assay: MIC against planktonic cells, absorbance at 600 nm; type: cell-based, Pseudomonas aeruginosa; settings: Table 2, BM2 medium, absorbance 600 nm, mean of three biological replicates
# Protocol: as §4, §5, §1
# [9] = tested on: P. aeruginosa PAO1; type: cell-based, Pseudomonas aeruginosa; settings: Table 5; PAO1, 1x BM2; biofilms on pegs, cells plated and counted; three biological replicates
# Protocol: as §6
# Figure 5 The MBEC values for the peptides were assessed against P. aeruginosa PAO1 in the presence of 1× BM2 medium. The eradication of biofilm cells was determined for the peptides using the counting of biofilm cells formed by Pa PAO1. Three biological replicates were run for each test sample, and the mean was calculated for counted cell values. Data points with error bars indicate the standard deviation (±SD).
# as §1
# [10] = tested on: P. aeruginosa PAO1 GFP; assay: MBEC, biofilm eradication, GFP fluorescence method; type: cell-based, Pseudomonas aeruginosa; settings: Table 2, BM2 medium, mean of three biological replicates
# Protocol: as §4, §5, §1
# [11] = Table 5, PAO1, 1x BM2, crystal violet at 595 nm, mean of three biological replicates
SMILES,MBC Agar Plate [1],MIC at 600 nm LD50 [2],MIC at 600 nm LD90 [2],MBIC at 488 and 530 nm LD50 [3],MBIC at 488 and 530 nm LD90 [3],MIC at 600 nm LD50 [4],MIC at 600 nm LD90 [4],MBEC at 488 and 530 nm LD50 [5],MBEC at 488 and 530 nm LD90 [5],MBIC at 488 and 530 nm LD50 [6],MBIC at 488 and 530 nm LD90 [6],MBRC (CV at 595 nm) LD50 ([7]; PAO1),"MBIC (CV at 595 nm) LD90 [7, 11]","MBRC (CV at 595 nm) LD90 [7, 11]",MIC at 600 nm LD50 [8],MIC at 600 nm LD90 [8],MBEC from Calgary Biofilm Device (CBD) LD50 [9],MBEC from Calgary Biofilm Device (CBD) LD90 [9],MBEC at 488 and 530 nm LD50 [10],MBEC at 488 and 530 nm LD90 [10],further results
CC(C)C[C@H](NC(=O)[C@H](Cc1ccccc1)NC(=O)[C@@H]1CCCN1C(=O)[C@H](Cc1c[nH]c2ccccc12)NC(=O)[C@H](Cc1c[nH]c2ccccc12)NC(=O)[C@H](Cc1c[nH]c2ccccc12)NC(=O)[C@@H]1CCCN1C(=O)[C@H](Cc1ccccc1)NC(=O)[C@H](CCCNC(=N)N)NC(=O)[C@H](CCCNC(=N)N)NC(=O)[C@@H](N)C(C)C)C(=O)N[C@@H](CCCNC(=N)N)C(=O)N[C@@H](CCCNC(=N)N)C(N)=O [Tritrp-Arg],2 µM,4 µM,8 µM,2 µmol/L,8 µmol/L,0.5 µM,2 µM,1 µmol/L,2 µmol/L,1 µmol/L,2 µmol/L,32 µmol/L,8 µmol/L,32 µmol/L,4 µM,8 µM,16 µmol/L,32 µmol/L,8 µmol/L,16 µmol/L,MBIC (CV at 595 nm) LD50 ([7]; PAO1): 4 µmol/L
CC(C)C[C@H](NC(=O)[C@H](Cc1ccccc1)NC(=O)[C@@H]1CCCN1C(=O)[C@H](Cc1c[nH]c2ccccc12)NC(=O)[C@H](Cc1c[nH]c2ccccc12)NC(=O)[C@H](Cc1c[nH]c2ccccc12)NC(=O)[C@@H]1CCCN1C(=O)[C@H](Cc1ccccc1)NC(=O)[C@H](CCCCN)NC(=O)[C@H](CCCCN)NC(=O)[C@@H](N)C(C)C)C(=O)N[C@@H](CCCCN)C(=O)N[C@@H](CCCCN)C(N)=O [Tritrp-Lys] (H-VKKFPWWWPFLKK-NH2),4 µM,32 µM,32 µM,16 µmol/L,32 µmol/L,1 µM,2 µM,1 µmol/L,2 µmol/L,2 µmol/L,2 µmol/L,64 µmol/L,32 µmol/L,64 µmol/L,32 µM,32 µM,128 µmol/L,128 µmol/L,64 µmol/L,64 µmol/L,"MBIC (CV at 595 nm) LD50 [7, 11]: 32 µmol/L"
